Test [1] relates to larva of Cnaphalocrocis medinalis Guenee. The test can be described thus: Test against larva of Cnaphalocrocis medinalis Guenee (sprayed paddy rice foliage). Type of test: in vivo. As to conditions: 20 ppm concentration of the active component; second instar larvae; counted after 7 days; 25° C. As for the experimental part:
Paddy rice (variety: Tamanishiki) planted in a pot was treated by spraying 50 ml per pot of the diluted aqueous solution of the prescribed concentration of the active compound prepared in the same manner as in the above-mentioned Biological Test Example 1. After the treated rice plant was dried in the air, their foliage part was cut in 4-5 cm length, which were put in a dish with 9 cm diameter with a sheet of filter paper and 2 ml of water. Five larvae of Cnaphalocrocis medinalis Guenee at the second instar were put in the dish that was placed in a room at the constant temperature of 25° C. After 2 and 4 days, each rest (each ⅓ amount) of foliage parts of rice plant were cut in the same manner and added to the dish. After 7 days the number of dead larvae was counted and the rate of death was calculated. In this test the results of 2 dishes at 1 section were averaged.

For test [2], the system named is larva of Spodoptera litura. The test can be described thus: Test against larva of Spodoptera litura (leaf dip, sweet potato leaves). The test is classed as in vivo. To be noted: 20 ppm concentration of the active component; third instar larvae; counted after 7 days; 25° C. How it is done:
Preparation of Test Solution:
In order to make an appropriate formulation of an active compound, 1 part by weight of the active compound was mixed with the above-mentioned amount of solvent containing the above-mentioned amount of emulsifier and the mixture was diluted with water to a prescribed concentration.
Leaves of sweet potato were soaked in the test solution diluted to a prescribed concentration with water, dried in the air and put in a dish of 9 cm diameter.
10 larvae of Spodoptera litura at the third instar were placed on the leaves and kept in a room at the constant temperature of 25° C. After 2 and 4 days further leaves of sweet potato were added and after 7 days the number of dead larvae was counted and the rate of death was calculated.
In this test the results of 2 dishes at 1 section were averaged.

The structures appear in SMILES notation.

For the compound `CSCC(C)(C)NC(=O)c1c(Br)cccc1C(=O)Nc1ccc(Cn2nc(C(F)(F)F)cc2C(F)(F)F)cc1C` [compound 45], the “controlling effect, rate of death” value in test [1] and in test [2] was 100% each time.
As to `Cc1cc(Cn2nc(C(F)(F)F)cc2C(F)(F)F)ccc1NC(=O)c1cccc(Cl)c1C(=O)NC(C)CS(C)(=O)=O` (stereo not shown) [compound 16], the “controlling effect, rate of death” value in test [1] and in test [2] was 100% each time.
Take `CSCC(C)NC(=O)c1c(I)cccc1C(=O)Nc1ccc(Cn2nc(C(F)(F)F)cc2C(F)(F)F)cc1C` (stereo not shown) [compound 86]: the “controlling effect, rate of death” value in test [1] and in test [2] was 100% each time.
As for `Cc1cc(-c2cc(C(F)(F)F)nn2CC(F)(F)F)ccc1NC(=O)c1cccc(I)c1C(=O)NC(C)CS(C)(=O)=O` (stereo not shown) [compound 508], the “controlling effect, rate of death” value in test [1] and in test [2] was 100% throughout.
Take `Cc1cc(Cn2cc(C(F)(F)C(F)(F)C(F)(F)F)c(C(F)(F)C(F)(F)C(F)(F)F)n2)ccc1NC(=O)c1cccc(Cl)c1C(=O)N[C@@H](C)C[S+](C)[O-]` (stereo partly shown) [compound 668]: the “controlling effect, rate of death” value in test [1] and in test [2] was 100% in each case.
Regarding `Cc1cc(Cn2nc(C(F)(F)F)cc2C(F)(F)F)ccc1NC(=O)c1cccc(I)c1C(=O)NC(C)CS(C)(=O)=O` (stereo not shown) [compound 90], the “controlling effect, rate of death” value in test [1] and in test [2] was 100% in each case.
Consider `CSCC(C)NC(=O)c1c(Cl)cccc1C(=O)Nc1ccc(Cn2nc(C(F)(F)F)cc2C(F)(F)F)cc1C` (racemic) [compound 11], for which the “controlling effect, rate of death” value in test [1] and in test [2] was 100% each time.
`Cc1cc(Cn2nc(C(F)(F)F)cc2C(F)(F)F)ccc1NC(=O)c1cccc(I)c1C(=O)NC(C)(C)C[S+](C)[O-]` (stereo not shown) [compound 83, N^1-{4-[3,5-bis(trifluoromethyl)-1H-pyrazol-1-ylmethyl]-2-methylphenyl}-N^2-(2-methanesulfinyl-1,1-dimethylethyl)-3-iodophthalamide]: the “controlling effect, rate of death” value in test [1] and in test [2] was 100% in each case.
In the case of `Cc1cc(Cn2nc(C(F)(F)F)cc2C(F)(F)F)ccc1NC(=O)c1cccc(OS(C)(=O)=O)c1C(=O)NC(C)CS(C)(=O)=O` (stereo not shown) [compound 132], the “controlling effect, rate of death” value in test [1] and in test [2] was 100% each time.
Take `CSC[C@H](C)NC(=O)c1c(F)cccc1C(=O)Nc1ccc(Cn2nc(C(F)(F)F)cc2C(F)(F)F)cc1C` [compound 549, N^1-{4-[3,5-bis(trifluoromethyl)-1H-pyrazol-1-ylmethyl]-2-methylphenyl}-3-fluoro-N^2-[1-(S)-1-methyl-2-methylsulfanyl-ethyl]-phthalamide]: the “controlling effect, rate of death” value in test [1] and in test [2] was 100% throughout.
For the compound `Cc1cc(Cn2nc(C(F)(F)F)nc2C(F)(F)F)ccc1NC(=O)c1cccc(I)c1C(=O)NC(C)C[S+](C)[O-]` (stereo not shown) [compound 217], the “controlling effect, rate of death” value in test [1] and in test [2] was 100% in each case.
In the case of `CSCC(C)NC(=O)c1c(I)cccc1C(=O)Nc1ccc(-c2cc(C(F)(F)F)nn2CC(F)(F)F)cc1C` (stereo not shown) [compound 506], the “controlling effect, rate of death” value in test [1] and in test [2] was 100% in each case.
Regarding `Cc1cc(Cn2nc(C(F)(F)F)cc2C(F)(F)F)ccc1NC(=O)c1cccc([N+](=O)[O-])c1C(=O)N[C@@H](C)C[S+](C)[O-]` (stereo partly shown) [compound 544], the “controlling effect, rate of death” value in test [1] and in test [2] was 100% in each case.
Take `Cc1cc(C(C)n2nc(C(F)(F)F)cc2C(F)(F)F)ccc1NC(=O)c1cccc(Cl)c1C(=O)N[C@@H](C)CS(C)(=O)=O` (stereo partly shown) [compound 561]: the “controlling effect, rate of death” value in test [1] and in test [2] was 100% throughout.
Regarding `Cc1cc(Cc2c(OC(F)F)nn(C(F)F)c2C(F)(F)F)ccc1NC(=O)c1cccc(I)c1C(=O)NC(C)CS(C)(=O)=O` (stereo not shown) [compound 270], the “controlling effect, rate of death” value in test [1] and in test [2] was 100% each time.
As for `Cc1cc(Cn2cc(C(F)(F)C(F)(F)C(F)(F)F)c(C(F)(F)C(F)(F)F)n2)ccc1NC(=O)c1cccc(Cl)c1C(=O)N[C@@H](C)C[S+](C)[O-]` (stereo partly shown) [compound 658], the “controlling effect, rate of death” value in test [1] and in test [2] was 100% in each case.
Turning to `Cc1cc(Cn2cc(C(F)(F)C(F)(F)F)c(C(F)(F)F)n2)ccc1NC(=O)c1cccc(Cl)c1C(=O)N[C@@H](C)CS(C)(=O)=O` [compound 639], the “controlling effect, rate of death” value in test [1] and in test [2] was 100% in each case.
For `Cc1cc(-c2cc(OC(F)F)n(C(F)F)n2)ccc1NC(=O)c1cccc(I)c1C(=O)NC(C)CS(C)(=O)=O` (stereo not shown) [compound 520], the “controlling effect, rate of death” value in test [1] and in test [2] was 100% each time.
As to `CSC[C@H](C)NC(=O)c1c(Cl)cccc1C(=O)Nc1ccc(C(C)n2nc(C(F)(F)F)cc2C(F)(F)F)cc1C` (stereo partly shown) [compound 559], the “controlling effect, rate of death” value in test [1] and in test [2] was 100% each time.
On to `CSC[C@H](C)NC(=O)c1c(Cl)cccc1C(=O)Nc1ccc(Cn2cc(C(F)(F)C(F)(F)C(F)(F)C(F)(F)F)c(C(F)(F)F)n2)cc1C` [compound 645], for which the “controlling effect, rate of death” value in test [1] and in test [2] was 100% in each case.
For the compound `CSC[C@H](C)NC(=O)c1c(I)cccc1C(=O)Nc1ccc(C(C)n2nc(C(F)(F)F)nc2C(F)(F)F)cc1C` (stereo partly shown) [compound 571], the “controlling effect, rate of death” value in test [1] and in test [2] was 100% in each case.
Take `CSC[C@H](C)NC(=O)c1c(Cl)cccc1C(=O)Nc1ccc(Cn2cc(C(F)(F)C(F)(F)C(F)(F)F)c(C(F)(F)C(F)(F)F)n2)cc1C` [compound 657]: the “controlling effect, rate of death” value in test [1] and in test [2] was 100% each time.
Turning to `Cc1cc(Cc2c(C(F)(F)F)nn(C(F)F)c2OC(F)F)ccc1NC(=O)c1cccc(I)c1C(=O)NC(C)CS(C)(=O)=O` (stereo not shown) [compound 264], the “controlling effect, rate of death” value in test [1] and in test [2] was 100% each time.
For the compound `Cc1cc(Cn2nc(C(F)(F)F)cc2C(F)(F)F)ccc1NC(=O)c1cccc(Cl)c1C(=O)NC(C)(C)CS(C)(=O)=O` [compound 10], the “controlling effect, rate of death” value in test [1] and in test [2] was 100% each time.
As to `CSCC(C)NC(=O)c1c(Cl)cccc1C(=O)Nc1ccc(Cn2nc(C(F)(F)C(F)(F)F)nc2C(F)(F)F)cc1C` (stereo not shown) [compound 153], the “controlling effect, rate of death” value in test [1] and in test [2] was 100% throughout.
For `Cc1cc(Cn2nc(C(F)(F)F)nc2C(F)(F)F)ccc1NC(=O)c1cccc(Cl)c1C(=O)NC(C)C[S+](C)[O-]` (stereo not shown) [compound 143], the “controlling effect, rate of death” value in test [1] and in test [2] was 100% each time.
Regarding `CSCC(C)(C)NC(=O)c1c(I)cccc1C(=O)Nc1ccc(-n2nccc2C(F)(F)C(F)(F)F)cc1C` [compound 422], the “controlling effect, rate of death” value in test [1] and in test [2] was 100% in each case.
Consider `Cc1cc(-n2nc(C(F)(F)C(F)(F)F)cc2C(F)(F)F)ccc1NC(=O)c1cccc(I)c1C(=O)NC(C)CS(C)(=O)=O` (stereo not shown) [compound 475], for which the “controlling effect, rate of death” value in test [1] and in test [2] was 100% each time.
Take `Cc1cc(C(C)n2nc(C(F)(F)F)cc2C(F)(F)F)ccc1NC(=O)c1cccc(I)c1C(=O)N[C@@H](C)C[S+](C)[O-]` (stereo partly shown) [compound 563]: the “controlling effect, rate of death” value in test [1] and in test [2] was 100% each time.
For the compound `Cc1cc(Cn2nc(C(F)(F)F)nc2C(F)(F)F)ccc1NC(=O)c1cccc(Cl)c1C(=O)NC(C)C[S+](C)[O-]` (stereo not shown) [compound 142], the “controlling effect, rate of death” value in test [1] and in test [2] was 100% throughout.
For the compound `Cc1cc(Cn2nc(C(F)(F)F)cc2C(F)(F)F)ccc1NC(=O)c1cccc(Br)c1C(=O)NC(C)CS(C)(=O)=O` (racemic) [compound 52], the “controlling effect, rate of death” value in test [1] and in test [2] was 100% in each case.
On to `Cc1cc(Cn2nc(C(F)(F)F)cc2C(F)(F)F)ccc1NC(=O)c1cccc(Cl)c1C(=O)NC(C)CS(C)(=O)=O` (racemic) [compound 15], for which the “controlling effect, rate of death” value in test [1] and in test [2] was 100% in each case.
Take `CSCC(C)(C)NC(=O)c1c(I)cccc1C(=O)Nc1ccc(-n2ccc(C(F)(F)C(F)(F)F)n2)cc1C` [compound 434]: the “controlling effect, rate of death” value in test [1] and in test [2] was 100% throughout.
For the compound `Cc1cc(Cn2cc(C(F)(F)C(F)(F)F)c(C(F)(F)F)n2)ccc1NC(=O)c1cccc(I)c1C(=O)N[C@@H](C)C[S+](C)[O-]` (stereo partly shown) [compound 641], the “controlling effect, rate of death” value in test [1] and in test [2] was 100% each time.
For the compound `CSC[C@H](C)NC(=O)c1c(Cl)cccc1C(=O)Nc1ccc(Cn2nc(C(F)(F)C(F)(F)F)cc2C(F)(F)C(F)(F)F)cc1C` [compound 626], the “controlling effect, rate of death” value in test [1] and in test [2] was 100% throughout.

The values are drawn from patent publication US7674807B2, “Heterocycle-substituted n-phenyl-phthalamide derivatives, related compounds and their use as insecticides” (Bayer CropScience AG, priority 2004, dated 2010).
